Experiments:
[1] = molecular target: T1, uric acid-xanthine/H+ symporter (UapA) (Emericella nidulans, UniProt Q07307, G411V); experiment: UapA structural (thermal) stability, CPM assay; assay type: biochemical, Aspergillus nidulans; conditions: for effect in maintaining folded UapA, ranking among MGAs: CMC+0.2 wt %, 40° C., 120 minutes
T1 construct: GFP; made in house; host or cells: Saccharomyces cerevisiae FGY217
Method: An experiment for measuring the structural stability of uric acid-xanthine/H^+ symporter (UapA) solubilized in MGAs in an aqueous solution was performed. The structural stability of UapA was measured using a CPM assay, and was measured at MGAs and DDM concentrations of (a) CMC+0.04 wt %, or (b) CMC+0.2 wt %.
Specifically, a UapA protein is a uric acid-xanthine/H^+ symporter in Aspergillus nidulans. Protein stability was measured by fluorescence spectroscopy using N-[4-(7-diethylamino-4-methyl-3-coumarinyl)phenyl]maleimide (CPM) which is a sulfhydryl-specific fluorophore. A free sulfhydryl group of a cysteine residue is in the interior of a protein, but becomes accessible to a solvent upon protein unfolding. CPM becomes fluorescent by a reaction with the free thiol, and thus provides as a protein unfolding sensor. In order to measure thermal stability, first, UapAG411V1-11 was expressed in the Saccharomyces cerevisiae FGY217 strain by fusion with GFP, and separated in a sample buffer (20 mM Tris (pH 7.5), 150 mM NaCl, 0.03% DDM and 1 mM xanthine) according to a method described in a research article (Mol. Membr. Biol. 2013, 30, 32-42) by J. Leung et al. A UapA protein was concentrated to about 10 mg/ml using a 100 kDa molecular weight cut-off filter (Millipore). The concentrated protein was diluted to a ratio of 1:150 with each buffer including DDM or MGA (MGA-C10, MGA-C11, MGA-C12, MGA-C13, MGA-C14 or MGA-C15) at a concentration of CMC+0.04 wt % or CMC+0.2 wt % in a Greiner 96-well plate. A CPM dye (Invitrogen) stored in DMSO (Sigma) was diluted with a dye buffer (20 mM Tris (pH 7.5), 150 mM NaCl, 0.03% DDM and 5 mM EDTA), and 3 μl of the diluted dye was added to each protein sample. The reaction mixture was incubated at 40° C. for 120 minutes. Fluorescence emission was monitored using a microplate spectrofluorometer, with an excitation wavelength at 387 nm and an emission wavelength at 463 nm. Relative maximum fluorescence was used to calculate a percentage of relative folded protein remaining after 120 minutes at 40° C. Relative unfolded proteins were plotted against time using GraphPad Prism.
Specifically, a UapA stabilization effect was evaluated by the same method as in Experimental Example 2 using MGA-C13, MGA-C14, MNG-3 or DDM at a concentration of (a) CMC+0.04 wt % or (b) CMC+0.2 wt %.

[2] = Hydrodynamic radius / size distribution of micelles by dynamic light scattering (DLS); assay type: physicochemical; conditions: 1.0 wt % amphiphile
Method: A method of measuring a radius of the micelle is not particularly limited, and those methods widely known in the related field may be used, for example, a dynamic light scattering (DLS) experiment may be used for measurement.
(§1) Specifically, a CMC was measured by a fluorophorescent encapsulation method using diphenylhexatriene (DPH) and an Rh of a micelle formed by each formulation (1.0 wt %) was measured using a dynamic light scattering (DLS) experiment.

[3] = Critical micelle concentration by fluorophore encapsulation using diphenylhexatriene (DPH); assay type: physicochemical; conditions: aqueous solution
Method: A method of measuring a CMC is not particularly limited, and those methods widely known in the related field may be used. For example, a CMC may be measured by a fluorophore encapsulation method using diphenylhexatriene (DPH).
as §1

[4] = molecular target: T2, melibiose permease (MelBSt) (Salmonella typhimurium, UniProt P30878); experiment: MelBSt extraction from membranes and thermal stability, SDS-PAGE and Western blotting; assay type: biochemical; conditions: 1.5 wt %, 90 minutes
T2 construct: made in house; host or cells: DW2 cells (ΔmelB and ΔlacZY), Salmonella typhimurium DW2
Method: An experiment for measuring the structural stability of Salmonella typhimurium melibiose permease (MelBSt) according to MGAs in an aqueous solution was performed. After MelBSt proteins were extracted from a membrane using MGAs or DDM, the amount and structure of extracted proteins were analyzed by SDS-PAGE and western blotting. The concentration of used amphiphiles was 1.5 wt %, and proteins were extracted at four different temperatures of 0, 45, 55 and 65° C. to evaluate both the protein extraction efficiency and stabilizing ability of a compound. A membrane sample which had not been treated with MGAs or DDM was used as a control group.
Specifically, MelBSt stability solubilized in DDM or MGAs was evaluated according to a method described in 2010 in a research article (P. S. Chae et al., Nat. Methods 2010, 7, 1003-1008.) by the inventors of the present invention. Proteins (MelBSt) were produced using plasmid pK95ΔAHB/WT MelBSt/CH10 encoding the wild-type MelB with a 6-His tag at the C-terminus and Salmonella typhimurium DW2 cells (ΔmelB and ΔlacZY). Cell growth and membrane preparation was performed according to a method described in a research article (Nat. Commun. 2014, 5, 3009) by A. S. Ethayathulla, et al. A protein assay was carried out using a Micro BCA kit (Thermo Scientific, Rockford, Ill.). In order to measure protein solubilization, a membrane sample (final protein concentration was 10 mg/mL) containing MelBSt was incubated with a solubilization buffer (20 mM sodium phosphate, pH 7.5, 200 mM NaCl, 10% glycerol and 20 mM melibiose) and 1.5% (w/v) DDM or MGA (MGA-C10, MGA-C11, MGA-C12, MGA-C13, MGA-C14 or MGA-C15) at four different temperatures of 0, 45, 55 and 65° C. for 90 minutes. After ultracentrifugation at 355,590 g in a Beckman Optima™ MAX Ultracentrifuge using a TLA-100 rotor for 45 min at 4° C., 20 μg of a protein was separated by SDS-16% PAGE and immunoblotted with a Penta-His-HRP antibody (Qiagen, Germantown, Md.). MelBSt was measured by an ImageQuant LAS 4000 Biomolecular Imager (GE Healthcare Life Sciences) using a SuperSignal West Pico chemiluminescent substrate.

[5] = test system: leucine transporter (LeuT); experiment: LeuT long-term stability, [3H]-Leu binding by scintillation proximity assay (SPA); assay type: biochemical, Aquifex aeolicus
Method: An experiment for measuring the structural stability of LeuT proteins according to MGAs (MGA-C11, MGA-C12, MGA-C13, MGA-C14 and MGA-C15) was performed. Each amphiphile was used at a concentration of (a) CMC+0.04 wt % or (b) CMC+0.2 wt %, a ligand-binding activity of LeuT was measured by scintillation proximity assay (SPA) using [^3H]-Leucine. The measurement was performed at regular intervals at room temperature during 12 days of incubation.
Specifically, a thermophilic bacteria Aquifex aeolicus-derived wild type LeuT was purified using a previously described method (Nature, G. Deckert et al., 1998, 392, 353-358). To sum up, the LeuT was expressed in E. coli C41 (DE3) cultured in a lysogeny broth medium supplemented with 0.1 mg/ml ampicillin. Expression of proteins was induced by adding isopropyl β-D-thiogalactopyranoside to a final concentration of 0.1 mM.
A cell membrane was separated from a crushed cell (Constant Systems Homogenizers, Kennesaw, Ga.), and solubilized in 1% (w/v) n-dodecyl-β-D-maltopyranoside (DDM; Affymetrix, Santa Clara, Calif.). After solubilization, LeuT was fixed in a Ni^2+-NTA resin (Life Technologies, Denmark), and eluted in 20 mM Tris-HCl (pH 7.5), 199 mM KCl, 1 mM NaCl, 0.05% (w/v) DDM and 300 mM imidazole. Thereafter, purified LeuT (about 1.5 mg/ml) was diluted tenfold with a buffer supplemented with MGA (MGA-C11, MGA-C12, MGA-C13, MGA-C14 or MGA-C15) or DDM to the final concentration of CMC+0.04% (w/v) or CMC+0.2% (w/v) while excluding DDM and imidazole from the above-described buffers. Protein samples were stored at room temperature for 12 days, and protein activity was determined by measuring [^3H]-Leu binding by SPA at a specified time. SPA was carried out using 450 mM NaCl and buffers containing each MGA, and a SPA reaction was performed in the presence of 20 nM [^3H]-Leu and 1.25 mg/ml copper chelate (His-Tag) YSi beads (Perkin Elmer, Denmark). [^3H]-Leu binding was measured using a MicroBeta liquid scintillation counter (Perkin Elmer).

T1 sequence (Q07307 12-574 G411V): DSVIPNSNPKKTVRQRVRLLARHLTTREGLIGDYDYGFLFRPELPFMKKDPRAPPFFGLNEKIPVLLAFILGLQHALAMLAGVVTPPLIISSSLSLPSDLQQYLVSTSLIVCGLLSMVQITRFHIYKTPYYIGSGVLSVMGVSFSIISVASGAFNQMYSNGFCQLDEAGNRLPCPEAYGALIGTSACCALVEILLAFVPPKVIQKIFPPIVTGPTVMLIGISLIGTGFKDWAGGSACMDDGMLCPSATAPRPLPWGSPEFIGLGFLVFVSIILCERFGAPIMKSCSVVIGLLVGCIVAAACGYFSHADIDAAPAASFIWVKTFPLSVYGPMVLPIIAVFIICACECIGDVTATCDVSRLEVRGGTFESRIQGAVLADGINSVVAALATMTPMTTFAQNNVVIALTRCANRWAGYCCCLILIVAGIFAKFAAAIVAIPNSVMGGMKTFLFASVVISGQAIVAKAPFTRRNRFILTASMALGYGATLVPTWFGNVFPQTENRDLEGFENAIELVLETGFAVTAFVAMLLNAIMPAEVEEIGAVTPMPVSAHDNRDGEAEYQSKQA
T2 sequence (P30878 whole entry): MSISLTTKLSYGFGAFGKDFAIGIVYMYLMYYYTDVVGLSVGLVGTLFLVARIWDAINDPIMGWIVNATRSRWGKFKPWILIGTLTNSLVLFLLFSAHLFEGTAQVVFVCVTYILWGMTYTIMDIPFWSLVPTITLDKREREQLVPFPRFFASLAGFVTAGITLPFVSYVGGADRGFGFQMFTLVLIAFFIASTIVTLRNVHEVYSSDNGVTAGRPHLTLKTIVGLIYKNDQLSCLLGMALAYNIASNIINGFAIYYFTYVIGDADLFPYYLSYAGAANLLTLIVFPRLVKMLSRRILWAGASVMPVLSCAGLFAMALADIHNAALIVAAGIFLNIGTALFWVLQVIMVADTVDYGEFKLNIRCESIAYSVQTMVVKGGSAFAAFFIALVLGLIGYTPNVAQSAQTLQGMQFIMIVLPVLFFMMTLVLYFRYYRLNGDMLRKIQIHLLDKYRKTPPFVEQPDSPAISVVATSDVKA

Compound	effect in maintaining folded UapA, ranking among MGAs [1]	Rh (nm), hydrodynamic radius of micelle [2] [nm]	CMC [3] [µM]	CMC (wt %) [3] [wt %]	UapA stabilization effect compared with MNG-3 ([1]; CMC+0.04 wt % or CMC+0.2 wt %, FIG. 25)	MelBSt protein extraction efficiency compared with DDM ([4]; 45° C.)	MelBSt extraction ability compared with DDM ([4]; 55° C.)	preservation of long-term stability of LeuT, comparison with DDM and ranking ([5]; 12 days at room temperature, CMC+0.04 wt % or CMC+0.2 wt %)	LeuT ligand-binding activity retained, % of initial activity ([5]; after 12 days of incubation at room temperature) [%]
CCCCCCCCCCCCC(CO[C@@H]1OC(CO)[C@@H](O)C(O)C1O)(CO[C@@H]1OC(CO)[C@@H](O)C(O)C1O)Cc1cc(CC(CCCCCCCCCCCC)(CO[C@@H]2OC(CO)[C@@H](O)C(O)C2O)CO[C@@H]2OC(CO)[C@@H](O)C(O)C2O)cc(CC(CCCCCCCCCCCC)(CO[C@@H]2OC(CO)[C@@H](O)C(O)C2O)CO[C@@H]2OC(CO)[C@@H](O)C(O)C2O)c1 (stereo partly drawn) [MGA-C12]	less effective than the above-described MGAs, but still higher than DDM	3.1 ± 0.03	~3.5	~0.0006					
CCCCCCCCCCCCCCC(CO[C@@H]1OC(CO)[C@@H](O)C(O)C1O)(CO[C@@H]1OC(CO)[C@@H](O)C(O)C1O)Cc1cc(CC(CCCCCCCCCCCCCC)(CO[C@@H]2OC(CO)[C@@H](O)C(O)C2O)CO[C@@H]2OC(CO)[C@@H](O)C(O)C2O)cc(CC(CCCCCCCCCCCCCC)(CO[C@@H]2OC(CO)[C@@H](O)C(O)C2O)CO[C@@H]2OC(CO)[C@@H](O)C(O)C2O)c1 (stereo partly drawn) [MGA-C14]	had the highest effect	3.4 ± 0.04	~2	~0.0004	far greater UapA stabilization effect than MNG-3	same level of protein extraction efficiency as DDM	higher MelBSt extraction ability than DDM		
CCCCCCCCCCCC(CO[C@@H]1OC(CO)[C@@H](O)C(O)C1O)(CO[C@@H]1OC(CO)[C@@H](O)C(O)C1O)Cc1cc(CC(CCCCCCCCCCC)(CO[C@@H]2OC(CO)[C@@H](O)C(O)C2O)CO[C@@H]2OC(CO)[C@@H](O)C(O)C2O)cc(CC(CCCCCCCCCCC)(CO[C@@H]2OC(CO)[C@@H](O)C(O)C2O)CO[C@@H]2OC(CO)[C@@H](O)C(O)C2O)c1 (stereo partly drawn) [MGA-C11]	less effective than the above-described MGAs, but still higher than DDM	3.0 ± 0.04	~5	~0.009				the most excellent MGA	~90
CCCCCCCCCCC(CO[C@@H]1OC(CO)[C@@H](O)C(O)C1O)(CO[C@@H]1OC(CO)[C@@H](O)C(O)C1O)Cc1cc(CC(CCCCCCCCCC)(CO[C@@H]2OC(CO)[C@@H](O)C(O)C2O)CO[C@@H]2OC(CO)[C@@H](O)C(O)C2O)cc(CC(CCCCCCCCCC)(CO[C@@H]2OC(CO)[C@@H](O)C(O)C2O)CO[C@@H]2OC(CO)[C@@H](O)C(O)C2O)c1 (stereo partly drawn) [MGA-C10]	less effective than the above-described MGAs, but still higher than DDM	2.9 ± 0.01	~8	~0.0014					
